# Measurements published in PubChem BioAssay (NCI).
#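 Where inhibition never reached the appropriate level, the endpoint shown equals the highest concentration tested. Otherwise, values were interpolated linearly from a five-concentration, 48-hour dose response in 96-well plates. GI50 is the concentration that inhibits growth by half. TGI denotes the concentration required for complete inhibition of growth.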
# How the values were obtained:
# Experiment in all cases: DTP human tumour cell line panel, 48 h
# HS 578T breast = system: HS 578T breast
# NCI-H522 lung = system: NCI-H522 lung
# HCT-116 colon = system: HCT-116 colon
# CCRF-CEM leukemia = system: CCRF-CEM leukemia
# KM12 colon = system: KM12 colon
# OVCAR-3 ovarian = system: OVCAR-3 ovarian
# SN12C renal = system: SN12C renal
# MCF7 breast = system: MCF7 breast
# A549 NSCLC = system: A549 NSCLC
# UACC-257 melanoma = system: UACC-257 melanoma
Compound,TGI (HS 578T breast) [µM],TGI (NCI-H522 lung) [µM],TGI (HCT-116 colon) [µM],TGI (CCRF-CEM leukemia) [µM],TGI (KM12 colon) [µM],TGI (OVCAR-3 ovarian) [µM],TGI (SN12C renal) [µM],TGI (MCF7 breast) [µM],TGI (A549 NSCLC) [µM],TGI (UACC-257 melanoma) [µM],GI50 (HCT-116 colon) [µM],GI50 (CCRF-CEM leukemia) [µM],GI50 (HS 578T breast) [µM],GI50 (NCI-H522 lung) [µM],GI50 (UACC-257 melanoma) [µM],GI50 (KM12 colon) [µM],GI50 (OVCAR-3 ovarian) [µM],GI50 (SN12C renal) [µM],GI50 (MCF7 breast) [µM]
Cn1c2ccccc2n2c3ncccc3c(=NCCCC(=O)O)c(C#N)c12,> 100,> 100,> 100,> 100,> 100,> 100,> 100,> 100,> 100,–,–,–,–,–,–,–,–,–,–
CCCC(=O)NC(Nc1cc(C)ccn1)(C(=O)OCC)C(F)(F)F (stereo unspecified),> 100,> 100,> 100,> 100,> 100,> 100,> 100,> 100,> 100,> 100,–,–,–,–,–,–,–,–,–
CC(C)(C)n1c(=O)n2n(c1=O)Cc1cccc3cccc(c13)C2,61.1,13.6,33.8,24.6,34,35.1,46.3,92.4,> 100,89.6,–,–,–,–,–,–,–,–,–
COc1ccccc1C1C(Cl)C(=O)N1n1cnc2ccccc2c1=O (stereo unspecified),–,> 100,> 100,> 100,> 100,> 100,> 100,–,> 100,> 100,–,–,–,–,–,–,–,–,–
CCN(CC)C(=O)Cn1c(-c2ccccc2)cc2ccccc21,> 100,> 100,> 100,> 100,> 100,> 100,> 100,> 100,> 100,> 100,–,–,–,–,–,–,–,–,–
O=C(CC(CC(=O)Oc1c(Br)cc(Br)cc1C(=O)O)C(=O)Oc1c(Br)cc(Br)cc1C(=O)O)Oc1c(Br)cc(Br)cc1C(=O)O,–,55.4,> 100,> 100,> 100,> 100,> 100,–,> 100,> 100,–,–,–,–,–,–,–,–,–
O=C(c1ccccc1)c1ccc(N2C(=O)/C(=C/Cc3ccco3)N=C2c2ccccc2)c(N2C(=O)/C(=C/Cc3ccco3)N=C2c2ccccc2)c1,64.9,–,> 100,53.5,> 100,46.7,> 100,> 100,> 100,> 100,–,–,–,–,–,–,–,–,–
C(/C=C/c1ccccc1)=Nc1ccc2c(c1)Cc1ccccc1-2,> 100,> 100,> 100,> 100,> 100,> 100,> 100,–,> 100,–,–,–,–,–,–,–,–,–,–
Cc1c2ccnc(C(=O)NCCN(C)C)c2cc2c3cc(O)ccc3n(C)c12,4.03,1.02,6.1,0.24,5.41,2.77,2.15,5.75,7.26,4.74,–,–,–,–,–,–,–,–,–
O=C(NC(Cl)(C(F)(F)F)C(F)(F)F)c1ccc(F)cc1,> 100,–,> 100,> 100,> 100,> 100,> 100,> 100,> 100,> 100,–,–,–,–,–,–,–,–,–
C=C(C)C(=O)O[C@H]1CC2=C[C@@H](C[C@@]3(C)O[C@@H]3[C@H]3OC(=O)C(=C)[C@@H]31)OC2=O,–,1.71,4.61,300,8.6,3.74,8.02,5.42,27.1,5.63,1.4,1.18,–,–,–,–,–,–,–
CCOP(=O)(C=C=C1CCC2[C@@H]3CCc4cc(OC)ccc4C3CC[C@]12C)OCC (stereo partly specified),40.3,18.9,19.2,–,26.2,24.2,23,20.7,18.4,19.6,–,–,–,–,–,–,–,–,–
NC(CSCc1ccc(I)cc1)C(=O)O (stereo unspecified),> 100,> 100,> 100,> 100,> 100,> 100,> 100,> 100,> 100,> 100,–,–,–,–,–,–,–,–,–
c1ccc2c(c1)NCCC(=NC1CCCCC1)N2,> 100,> 100,> 100,> 100,> 100,> 100,> 100,–,> 100,> 100,–,–,–,–,–,–,–,–,–
Clc1ccc(Nc2nnc(CCCCCCCCc3nnc(Nc4ccc(Cl)cc4)o3)o2)cc1,–,73.1,34.5,–,99.2,–,> 100,> 100,89.8,> 100,–,–,–,–,–,–,–,–,–
O=c1[nH]nc(Cc2ccc(Cl)cc2)n1/N=C/c1ccco1,–,> 100,> 100,> 100,> 100,> 100,> 100,> 100,> 100,> 100,–,–,–,–,–,–,–,–,–
CC(C)C1OC(N)=C(C#N)C1(C#N)C#N (stereo unspecified),> 100,> 100,> 100,91.4,> 100,–,> 100,> 100,> 100,96.4,–,–,–,–,–,–,–,–,–
O=C1NC(=S)N/C1=C\c1cc2c(=O)c3ccccc3sc2s1,> 100,> 100,> 100,–,> 100,> 100,> 100,> 100,–,> 100,–,–,–,–,–,–,–,–,–
CC(C)(C)OC(=O)N[C@H]1CC(O)c2ccccc2N(CC(=O)O)C1=O (stereo partly specified),–,> 100,> 100,> 100,> 100,> 100,> 100,–,> 100,> 100,–,–,–,–,–,–,–,–,–
Cc1nc2c(c(=O)[nH]1)S/C(=C(/C#N)c1nc3ccccc3[nH]1)N2c1ccccc1,–,> 100,> 100,> 100,> 100,> 100,> 100,–,> 100,> 100,–,–,–,–,–,–,–,–,–
Nc1ccccc1Nc1ccccc1C(=O)[O-].Nc1ccccc1Nc1ccccc1C(=O)[O-].[Zn+2],–,44.4,> 100,> 100,> 100,61,> 100,–,> 100,> 100,–,–,–,–,–,–,–,–,–
S=C(NNC1=NCCCCN1)Nc1ccc(Cl)cc1,> 100,42.3,> 100,> 100,> 100,> 100,–,> 100,> 100,43.9,–,–,–,–,–,–,–,–,–
CCN1CCCC(C#N)(c2ccccc2)CC1 (stereo unspecified),> 100,–,> 100,–,> 100,–,–,–,> 100,> 100,–,–,–,–,–,–,–,–,–

Compound,TGI (HS 578T breast) [µM],TGI (NCI-H522 lung) [µM],TGI (HCT-116 colon) [µM],TGI (CCRF-CEM leukemia) [µM],TGI (KM12 colon) [µM],TGI (OVCAR-3 ovarian) [µM],TGI (SN12C renal) [µM],TGI (MCF7 breast) [µM],TGI (A549 NSCLC) [µM],TGI (UACC-257 melanoma) [µM],GI50 (HCT-116 colon) [µM],GI50 (CCRF-CEM leukemia) [µM],GI50 (HS 578T breast) [µM],GI50 (NCI-H522 lung) [µM],GI50 (UACC-257 melanoma) [µM],GI50 (KM12 colon) [µM],GI50 (OVCAR-3 ovarian) [µM],GI50 (SN12C renal) [µM],GI50 (MCF7 breast) [µM]
c1cnn(C23C4C5C6C4C2C6C53)c1 (stereo unspecified),> 100,> 100,> 100,> 100,> 100,–,> 100,> 100,> 100,> 100,–,–,–,–,–,–,–,–,–
CCN(CC)Cc1cc(Nc2c3ccccc3nc3c2[nH]c2ccccc23)cc(CN(CC)CC)c1O,4.71,2.47,3.33,–,10.6,–,2.18,9.07,10.4,2.86,–,–,–,–,–,–,–,–,–
CN(C)CCNc1nc2ccccc2c2c1CCCC2,> 100,33.1,30.2,–,41.4,> 100,89.2,29.1,> 100,29.3,–,–,–,–,–,–,–,–,–
COc1ccc(NC(=S)N/N=C\c2ccc(NC(C)=O)cc2)cc1,> 100,> 100,> 100,> 100,> 100,> 100,> 100,–,> 100,> 100,–,–,–,–,–,–,–,–,–
COc1cc(/C=C2/SC(c3ccccc3)N(Cc3ccccc3)C2=O)cc(OC)c1OC (stereo unspecified),> 100,63,> 100,–,> 100,> 100,> 100,> 100,> 100,> 100,–,–,–,–,–,–,–,–,–
CC(C)(C)c1cc(-c2cc(C(C)(C)C)[nH]n2)n[nH]1,> 100,> 100,> 100,> 100,–,> 100,> 100,> 100,> 100,> 100,–,–,–,–,–,–,–,–,–
CC(=O)N(C)c1ccc(N=CN(C)C)cc1,–,> 100,> 100,> 100,–,> 100,> 100,> 100,> 100,> 100,–,–,–,–,–,–,–,–,–
O=C1c2cccnc2S(=O)(=O)N1c1ccc(Oc2ccccc2)cc1,–,> 100,> 100,> 100,> 100,> 100,> 100,> 100,> 100,> 100,–,–,–,–,–,–,–,–,–
COc1ccc(N=C2S/C(=N\C(=Nc3ccccc3)SCc3ccccc3)N(c3ccccc3)C2=Nc2ccc(OC)cc2)cc1,> 100,–,> 100,> 100,> 100,–,> 100,> 100,> 100,> 100,–,–,–,–,–,–,–,–,–
CC(=O)OCC(C)C1=C(OC(C)=O)C(=O)C2(C)C/C=C(/C)CC/C=C(\C)CCC(OC(C)=O)C(C)CCC12 (stereo unspecified),60,–,36,40.9,36.9,–,36.5,38.2,–,35.8,–,–,–,–,–,–,–,–,–
N#C[C@H](C(=O)c1ccccc1F)c1nc2ccccc2s1,> 100,69.3,61.3,73.9,38.6,63.7,> 100,–,> 100,> 100,–,–,–,–,–,–,–,–,–
NC(=S)N/N=C/c1nccc2ccccc12,–,5.24,> 100,–,> 100,–,> 100,–,> 100,–,–,–,–,–,–,–,–,–,–
CCOc1ccc(N/C(=C(/C(Cl)=C(/Cl)Nc2ccccc2)[N+](=O)[O-])n2nnc3ccccc32)cc1,–,39.5,56,–,> 100,80.8,47.2,> 100,> 100,> 100,–,–,–,–,–,–,–,–,–
Clc1c(Cl)c(Cl)c2c(nnn2C2CCCO2)c1Cl (stereo unspecified),59,66.6,> 100,77.9,–,> 100,> 100,> 100,65.1,> 100,–,–,–,–,–,–,–,–,–
O=C1C(C(O)(C(F)(F)Cl)C(F)(F)Cl)CCCC1C(O)(C(F)(F)Cl)C(F)(F)Cl (stereo unspecified),> 10,> 10,> 10,–,> 10,> 10,–,> 10,> 10,> 10,–,–,–,–,–,–,–,–,–
CC(=O)OC1CC2CCN3C(=O)c4cc5c(cc4[C@H](C1OC(C)=O)C23)OCO5 (stereo partly specified),–,> 100,> 100,> 100,> 100,> 100,> 100,–,> 100,> 100,–,–,–,–,–,–,–,–,–
NC1=NC2=c3ccccc3=C(c3cnccn3)C2(c2cnccn2)c2ccccc21 (stereo unspecified),–,> 100,> 100,> 100,> 100,81.4,> 100,–,> 100,> 100,–,–,–,–,–,–,–,–,–
c1ccc(N2N=C(c3cccc(Nc4ccncc4)c3)CC2c2ccc3c(c2)OCO3)cc1 (stereo unspecified),3.42,3.48,–,7.85,3.18,2.92,3.25,4.25,–,4.09,–,1.78,1.55,1.61,2,1.51,1.48,1.71,1.74
COc1cc(C(=O)/C=C/c2ccc(OCCSCCCCCCCCCCSCCOc3ccc(/C=C/C(=O)c4cc(OC)c(OC)c(OC)c4)cc3)cc2)cc(OC)c1OC,> 100,> 100,> 100,> 100,> 100,> 100,> 100,> 100,> 100,–,–,–,–,–,–,–,–,–,–
COC(=O)[C@H](Cc1ccccc1)NC(=O)/C(=C/C(C)C)NC(=O)[C@H](CCSC)NC=O,–,> 100,> 100,> 100,> 100,> 100,> 100,–,> 100,> 100,–,–,–,–,–,–,–,–,–
Cc1c(C)c(C)c(CC2(C)CSC2)c(CC2(C)CSC2)c1C,> 100,> 100,> 100,> 100,–,> 100,> 100,> 100,> 100,> 100,–,–,–,–,–,–,–,–,–
CCOP(=O)(OCC)C(C)(C)N(C)/C(F)=N/C(F)(F)F,> 100,–,> 100,> 100,> 100,> 100,> 100,> 100,> 100,> 100,–,–,–,–,–,–,–,–,–
Cc1ccc(/C=N/n2c(Cc3ccccc3)n[nH]c2=O)cc1,> 100,> 100,> 100,> 100,> 100,> 100,> 100,–,> 100,> 100,–,–,–,–,–,–,–,–,–
